Experimental findings from US7041701B2, “Triterpenoid derivatives” (Univerzita Palackeho V Olomouci, priority 2000, dated 2006) are described below.

For this assay, the system named is MDA-MB-238 human breast cancer, estrogen independent, p53mut/mut. Kind of assay: MTT cytotoxicity assay, MDA-MB-238. To be noted: 72 hours, read-out: TCS50. The format is cell-based. An excerpt: One of the parameters used as the basis for colorimetric assays is the metabolic activity of viable cells. For example, a microtiter assay which uses the tetrazolium salt MTT is now widely used to quantitate cell proliferation and cytotoxicity [Hajdúch M, Mihál V, Minarík J, Fáber E, Safárová M, Weigl E, Antálek P.: Cytotechnology, 1996, 19, 243–245]. For instance, this assay is used in drug screening programs and in chemosensitivity testing. Because tetrazolium salts are cleaved only by metabolically active cells, these assays exclusively detect viable cells. In the case of the MTT assay, yellow soluble tetrazolium salt is reduced to a coloured water-insoluble formazan salt. After it is solubilized, the formazan formed can easily and rapidly be quantified in a conventional ELISA plate reader at 570 nm (maximum absorbancy). The quantity of reduced formazan corresponds to the number of vital cells in the culture. […]
The cell suspensions that were prepared and diluted according to the particular cell type and the expected target cell density (2,500–30,000 cells per well based on cell growth characteristics) were added by pipette (80 μl) into 96/well microtiter plates. […] Usually, test compounds were evaluated at six 4-fold dilutions. […] The tumour cell survival (TCS) was calculated using the following equitation: TCS=(ODdrug exposed well/mean ODcontrol wells)×100%. […]

On to `CC(=O)OC[C@@]1(C(=O)O)CC[C@]2(C)[C@H](CC[C@@H]3[C@@]4(C)CC[C@H](OC(C)=O)C(C)(C)[C@@H]4CC[C@]32C)C1=O` [I.3, 3β,28-diacetoxy-18-oxo-19,20,21,29,30-pentanorlupan-22-oic acid], for which the IC50 came to 1.4 µM.
